Source: patent US4180672A, “2-Organothio-2-cyclopentenones, organothio-cyclopentanes derived therefrom” (Teijin Limited, priority 1976, dated 1979)
Like-named read-outs stand apart in the source and are kept apart here.

Tests used:
[1] = system: formation of ulcer in rats induced by indomethacin; assay: inhibiting action on formation of ulcer in rats induced by indomethacin (peroral); assay type: in vivo, rats (Sprague Dawley); details: for Ulcer formation (ulcer coefficient) Average value ± S.E.M.: 7 rats
Method: By the method of Y. H. Lee et al. [Arch. Int. Pharmacodyn. Ther., 192, 370 (1971)], the inhibiting action of dl-11-deoxy-15-methyl-7-thia-PGE1 methyl ester (a compound of formula II) on the formation of ulcer in rats induced by indomethacin, a typical non-steroid anti-inflammatory agent, was evaluated.
Male rats (Sprague Dawley species; body weight 300 g) were used in the experiment. These rats had been caused to fast for 24 hours in separate cages before the initiation of the experiment. Indomethacin was orally administered to these rats, and 6 hours later, they were killed. Formation of ulcer in the fundus part was examined by measuring the area of the ulcer-forming part under microscope. The dl-11-deoxy-15-methyl-7-thia-PGE1 methyl ester was orally administered at the end of 30 minutes and 3 hours, respectively, after the administration of indomethacin. The ulcer formation inhibiting rate of the dl-11-deoxy-15-methyl-7-thia-PGE1 methyl ester against a predetermined dose of indomethacin was determined.
The indomethacin was administered as a 0.5 ml aqueous suspension (containing two drops of a Tween-type nonionic surfactant per 14 ml of water). The dl-11-deoxy-15-methyl-7-thia-PGE1 methyl ester was given in the form of a solution in a phosphate buffer containing 0.9% of sodium chloride.
In the same way as in Referential Example 1, the compounds shown in Table 2 were examined for their inhibiting action on ulcer formation.

[2] = acute toxicity (iv) in mice; details: mouse, in vivo

Q: With CCCCCC(C)(O)/C=C/C1CCC(=O)C1SCCCCCC(=O)OC (racemic) [No. 101, dl-11-deoxy-15-methyl-7-thia-PGE1 methyl ester] as the molecule, how does the ED50 ([1]; Rattus norvegicus, po, peroral, indomethacin 20 mg/kg peroral, rats, read-out: ED50 (inhibition of ulcer formation induced by indomethacin)) read?
A: The ED50 was 0.3 mg/kg.

Q: What about the “Inhibiting rate (ulcer formation)” value ([1]; dose 0.1 mg/kg, po) of the same molecule?
A: The value was 16%.

Q: What about the “Ulcer formation (ulcer coefficient) Average value ± S.E.M.” value ([1]; dose 0.1 mg/kg, po, indomethacin 20 mg/kg peroral) of the same molecule?
A: Its value is 57.5 ± 14.1.

Q: What about the “Inhibiting rate (ulcer formation)” value ([1]; dose 0.4 mg/kg, po) of the same molecule?
A: Its value is 66%.

Q: And the “Ulcer formation (ulcer coefficient) Average value ± S.E.M.” value ([1]; dose 0.4 mg/kg, po, indomethacin 20 mg/kg peroral, *** p 0.001)?
A: The value was 23.3 ± 12.4.

Q: And the “Inhibiting rate (ulcer formation)” value ([1]; dose 1.0 mg/kg, po)?
A: Its value is 99%.

Q: What about the “Ulcer formation (ulcer coefficient) Average value ± S.E.M.” value ([1]; dose 1.0 mg/kg, po, indomethacin 20 mg/kg peroral, *** p 0.001) of the same molecule?
A: The value was 0.6 ± 0.05.

Q: And the “inhibition of ulcer formation (in words)” value ([1]; rats, indomethacin-induced, peroral)?
A: Its value is “markedly inhibited ulcer formation”.

Q: What does the source list for CCCCC[C@H](O)/C=C/[C@@H]1CCC(=O)[C@H]1SCCCCCC(=O)OC [No. 89, 11-Deoxy-7-thia-8,12-diepiprostaglandin E1 methyl ester]?
A: Inhibiting rate (ulcer formation) ([1]; dose 0.4 mg/kg, po): 57%; Inhibiting rate (ulcer formation) ([1]; dose 1.0 mg/kg, po): 65%; LD50 ([2]; iv): 20 mg/kg

Q: With CCCCCC(C)(O)CS[C@H]1C(=O)CC[C@@H]1SCCCCCC(=O)O (some centres unmarked) [No. 154, 7,13-dithia-15-hydroxy-15-methyl-11-oxo-prostanoic acid] as the molecule, how does the “Inhibiting rate (ulcer formation)” value ([1]; dose 2.0 mg/kg, po) read?
A: The value was 80%.

Q: What about the LD50 ([2]; acute toxicity (iv) in mice, read-out: LD50) of the same molecule?
A: The LD50 was 350 mg/kg.

Q: For CCCCCCCS[C@H]1C(O)CC[C@@H]1SCCCCCC(=O)OC (some centres unmarked) [No. 159, methyl 7,13-dithia-11-hydroxyprostanoate], which “Inhibiting rate (ulcer formation)” value ([1]; dose 0.4 mg/kg, po) is on record?
A: Its value is 15%.

Q: And the “Inhibiting rate (ulcer formation)” value ([1]; dose 2.0 mg/kg, po)?
A: Its value is 78%.

Q: Which “Inhibiting rate (ulcer formation)” value ([1]; dose 0.4 mg/kg, po) does the source give for CCCCCCCS[C@H]1CCC(O)[C@@H]1SCCCCCC(=O)OC (some centres unmarked) [No. 171, methyl 7,13-dithia-9-hydroxyprostanoate] here?
A: The value was 12%.

Q: What about the “Inhibiting rate (ulcer formation)” value ([1]; dose 5.0 mg/kg, po) of the same molecule?
A: Its value is 75%.

Q: Which “Inhibiting rate (ulcer formation)” value ([1]; dose 0.4 mg/kg, po) does the source give for CCCCCC(C)(O)CS[C@H]1CCC(O)[C@@H]1SCCCCCC(=O)OC (some centres unmarked) [No. 182, methyl 7,13-dithia-9,15-dihydroxy-15-methylprostanoate] here?
A: The value was 25%.

Q: And the “Inhibiting rate (ulcer formation)” value ([1]; dose 2.0 mg/kg, po)?
A: Its value is 80%.

Q: Which “Inhibiting rate (ulcer formation)” value ([1]; dose 0.4 mg/kg, po) does the source give for COC(=O)CCCCCSC1CCC(O)C1SCCCc1ccccc1 (centres unmarked) [No. 190, methyl 7,13-dithia-11-hydroxy-16-phenyl-17,18,19,20-tetranor-prostanoate] here?
A: The value was 46%.

Q: And the “Inhibiting rate (ulcer formation)” value ([1]; dose 1.0 mg/kg, po)?
A: The value was 57%.

Q: What does the source list for CCCCC[C@H](O)/C=C/[C@@H]1[C@@H](C/C=C\CCCC(=O)O)[C@@H](O)C[C@H]1O [PGF2α, reference compound]?
A: LD50 ([2]; iv, female, iv, mice, read-out: acute toxicity LD50): 56 mg/kg; LD50 ([2]; male, iv, mice, read-out: acute toxicity LD50): 60 mg/kg
